Experimental data reported in patent US20130040036A1, “Shelf Stable, Low Water Liquid Beverage Concentrates And Methods Of Making The Same” (priority 2011, published 2013).

Assay: Solubility of sucralose in non-aqueous liquids
Assay type: physicochemical
Conditions: 1,3-propanediol vs propylene glycol
Text: Therefore, beverage concentrates containing sucralose may be advantageously prepared using a solvent comprising 1,3-propanediol to provide a beverage concentrate that is able to maintain sucralose in solution throughout its shelf life. In other instances, selection of NAL may also depend, at least in part, on the flavor provided by the NAL and the desired taste profile in the final beverage. In yet other instances, selection of NAL may also depend, at least in part, on the viscosity and/or the desired density of the resulting concentrate.

OC[C@H]1O[C@H](O[C@]2(CCl)O[C@H](CCl)[C@@H](O)[C@@H]2O)[C@H](O)[C@@H](O)[C@H]1Cl [sucralose]
solubility in non-aqueous liquid: more readily solubilized in 1,3-propanediol than in propylene glycol
